Experimental data as given in PMC12222847 (Scientific Reports, 2025).

Molecular target: T1, CK1.2 (Trypanosoma brucei, UniProt Q57W25)
T1 sequence (Q57W25 1-332): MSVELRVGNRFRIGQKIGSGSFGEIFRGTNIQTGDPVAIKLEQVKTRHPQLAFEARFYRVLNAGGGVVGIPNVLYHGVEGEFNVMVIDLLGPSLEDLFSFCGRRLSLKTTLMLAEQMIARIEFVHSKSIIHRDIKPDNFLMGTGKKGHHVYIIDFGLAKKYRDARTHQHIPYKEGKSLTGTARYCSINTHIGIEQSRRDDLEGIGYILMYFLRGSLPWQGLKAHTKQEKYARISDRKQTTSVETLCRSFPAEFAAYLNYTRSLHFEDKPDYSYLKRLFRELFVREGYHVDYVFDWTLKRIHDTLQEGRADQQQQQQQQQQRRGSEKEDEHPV
Format: biochemical

| IC50 [nM] | Compound |
| --- | --- |
| 49.2 | NC(=O)c1ccc(-c2nc(-c3ccc4c(c3)OCO4)c(-c3ccccn3)[nH]2)cc1 [SB-431542] |
| 29.1 | Nc1nccc(-c2c(-c3ccc(F)cc3)ncn2C2CCCCC2)n1 [PF-670462] |
